Data reported in patent publication US11766447B2, “3′3′-cyclic dinucleotide analogue comprising a cyclopentanyl modified nucleotide as sting modulator” (INSTITUTE OF ORGANIC CHEMISTRY AND BIOCHEMISTRY ASCR, V.V.I., priority 2019, dated 2023).

Key:
AQ STING (G230A-R293Q) = target: T1, AQ STING (G230A-R293Q) (Homo sapiens, UniProt Q86WV6, G230A/H232R/R293Q); test: Differential scanning fluorimetry (DSF) with AQ STING; format: binding; details: thermal shift vs apoprotein; 150 μM CDN; truncated human AQ STING 0.1 mg/ml
T1 construct: 8xHis (N, cleaved yes); SUMO (N, cleaved yes); made in house; host or cells: E. coli Rosetta-gami B (DE3)
T1 sequence (Q86WV6 140-343 G230A/H232R/R293Q): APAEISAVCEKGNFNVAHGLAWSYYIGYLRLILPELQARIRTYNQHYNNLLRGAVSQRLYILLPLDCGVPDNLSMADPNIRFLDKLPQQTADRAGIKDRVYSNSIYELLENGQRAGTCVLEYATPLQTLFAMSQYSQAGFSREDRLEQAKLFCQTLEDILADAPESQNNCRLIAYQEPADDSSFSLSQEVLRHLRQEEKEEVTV
Experimental: (§1) Purified PCR products were cleaved with restriction enzymes BamHI (cat. #R0136S, NEB, Ipswich, USA) and NotI (cat. #R0189S, NEB, Ipswich, USA) and cloned into the pSUMO vector linearized with the identical enzymes.
(§2) DNase I (cat. #D5025, Sigma Aldrich, Czech Republic) and RNase A (cat. #R6513, Sigma Aldrich, Czech Republic) were added (final concentration 50 μg/ml) together with MgCl2 (final concentration 5 mmol·l^−1) to the homogenate and bacteria were lysed using French Press G-M™ High-Pressure Cell Press Homogenizer (1500 psi, 3 cycles). […] The resin was poured into a chromatography column, washed with 50 ml buffer A (50 mmol·l^−1 TrisCl (pH 8.0), 800 mmol·l^−1 NaCl, 3 mmol·l^−1 β-mercaptoethanol; 10% glycerol; 20 mmol·l^−1 imidazol) and 8-His-SUMO tagged STING proteins were eluted with 15 ml buffer A containing 300 mmol·l^−1 imidazole. […] Proteins were concentrated with Amicon® Ultra-15 10 K device (cat. #UFC901008, Merck Millipore, Billerica, USA) and flash frozen in liquid N2.
(§3) 20 μL solutions of the reaction mixtures were pipetted in triplicates into 96 well optical reaction plates and thermal denaturation of samples were performed on real time PCR cycler (LightCycler® 480 Instrument II—Roche, Basel, Switzerland). The first derivative of the thermal denaturation curves was performed to calculate denaturing temperatures of STING-CDN complexes and STING apoproteins. The thermal shift for each CDN was calculated by subtracting the average denaturing temperature of STING apoprotein from the average denaturing temperature of STING CDN complex.

WT STING [1] = target: T2, WT STING (Homo sapiens, UniProt Q86WV6, H232R); test: Digitonin assay using 293T wtSTING-FL reporter cells; format: cell-based; parameters: host or cells: 293T (ATCC CRL-3216), stably transfected, with 4xISRE firefly luciferase reporter; details: 293T wtSTING-FL cells, ISRE firefly luciferase; compounds in Digitonin buffer 30 minutes, then 5 hours; 8-point curve
Text: Two complementary oligonucleotides of the sequence […] […] […] […] […] The oligonucleotides were mixed in equal molar amounts, hybridized, and cleaved by restriction endonucleases HindIII (cat. #. R0104S, NEB, Ipswich, USA) and BglII (cat. #R0144S, NEB, Ipswich, USA). Ultimately, they were ligated into plasmid pGL4.27 (cat. #E6651, Promega, Madison, USA) linearized with the same enzymes. As result the sequence with four ISRE sites was placed upstream of the minimum promoter of firefly luciferase reporter gene.
After 5 minutes incubation at room temperature (RT), 250 μL of the mixture was added dropwise to the cells in one well. Cells were incubated 36 hours at 37° C. with 5% CO2, and then detached with 0.05% Trypsin and 0.22 g/L EDTA (both cat. #L0941, Biowest, Riverside, USA).
Transfected cells were seeded onto poly-D-lysine coated six well plates at density 50,000 cells per 1 cm^2 in DMEM medium with high glucose containing 10% heat inactivated FBS, 30 μg/mL blasticidin (cat. #ant-b1-05, InvivoGen, San Diego, USA), 0.06 mg/ml Penicillin G and 0.1 mg/ml Streptomycin Sulfate (both cat. #. L0018, Biowest, Riverside, USA). The medium was replenished every 3-4 days until visible colonies of cells resistant to blasticidin were formed.
Blasticidin resistant cells stably expressing WT STING were further transfected with […] plasmid following the same procedure as described above. […] Homogeneous culture of stably double transfected cells was prepared by limiting dilution of cells in 96 well plates and wells with cells were selected that originated from a single cell.
The medium was removed next day and three fold serial dilutions of compounds in Digitonin buffer containing 50 mmol·l^−1 HEPES (cat. #H3375, Sigma Aldrich, Czech Republic) pH 7.0, 100 mmol·l^−1 KCl, 3 mmol·l^−1 MgCl2, 0.1 mmol·l^−1 DTT (cat. #D0632, Sigma Aldrich, Czech Republic), 85 mmol·l^−1 Sucrose (cat. #S7903, Sigma Aldrich, Czech Republic), 0.2% BSA (cat. #A2153, Sigma Aldrich, Czech Republic), 1 mmol·l^−1 ATP (cat. #A1852, Sigma Aldrich, Czech Republic), 0.1 mmol·l^−1 GTP (cat. #G8877, Sigma Aldrich, Czech Republic), and 10 μg/mL Digitonin A (cat. #D141, Sigma Aldrich, Czech Republic) were added to the cells. The buffer was removed after 30 minutes incubation at 37° C. with 5% CO2, the cells were washed once with 100 μl of cultivation medium, and 100 μl of medium was added to each well. The plates with cells were incubated for 5 hours at 37° C. with 5% CO2, 50 μl of the medium was removed and 30 μl of ONE-Glo™ Luciferase Assay System reagent (cat. #E6120, Promega, Madison, USA) was added to each well. Luminescence was read on Synergy H1 (Biotek, Winooski, USA). GraphPad Prism (La Jolla, USA) was used to calculate the 50% effective concentration ([…] from an 8-point dose-response curve.
Target sequence in this assay (Q86WV6 whole entry H232R): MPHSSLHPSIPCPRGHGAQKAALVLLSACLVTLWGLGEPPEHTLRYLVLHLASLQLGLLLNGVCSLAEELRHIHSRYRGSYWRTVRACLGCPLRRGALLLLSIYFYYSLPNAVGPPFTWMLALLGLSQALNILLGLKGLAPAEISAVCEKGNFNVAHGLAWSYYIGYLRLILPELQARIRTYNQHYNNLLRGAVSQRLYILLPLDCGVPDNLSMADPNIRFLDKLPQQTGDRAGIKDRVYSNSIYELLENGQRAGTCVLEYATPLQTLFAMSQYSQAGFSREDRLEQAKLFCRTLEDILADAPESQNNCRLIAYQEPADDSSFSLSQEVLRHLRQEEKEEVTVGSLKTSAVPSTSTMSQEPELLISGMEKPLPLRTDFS

WT STING [2] = target: T2, WT STING; test: Differential scanning fluorimetry (DSF) with WT STING; format: binding; parameters: 8xHis (N, cleaved yes); SUMO (N, cleaved yes); made in house; host or cells: E. coli Rosetta-gami B (DE3); details: thermal shift vs apoprotein; 150 μM CDN; truncated human WT STING 0.1 mg/ml
Experimental: as §1, §2, §3
Target sequence in this assay (Q86WV6 140-343 H232R): as the sequence (Q86WV6 140-343 G230A/H232R/R293Q) above, with A91G, Q154R counted along it

SMILES	ΔTm at 150 µM (AQ STING (G230A-R293Q))	EC50 (WT STING [1])	ΔTm at 150 µM (WT STING [2])	DSF ΔTm (° C.) AQ STING (AQ STING (G230A-R293Q))	DSF ΔTm (° C.) WT STING (WT STING [2])
Nc1nc2c(ncn2[C@@H]2O[C@@H]3COP(=O)(S)O[C@@H]4[C@@H](COP(=O)(S)O[C@H]3[C@H]2F)C[C@@H](n2cnc3c(N)ncnc32)[C@@H]4F)c(=O)[nH]1 (single isomer, unassigned) [Compound 132a]	19.9 °C	8 nM	12.9 °C		
Nc1nc2c(ncn2[C@@H]2C[C@@H]3COP(=O)(O)O[C@H]4[C@@H](O)[C@H](n5cnc6c(N)ncnc65)O[C@@H]4COP(=O)(O)O[C@H]3[C@H]2O)c(=O)[nH]1 [Compound 101, 2-amino-9-((2R,3R,3aS,7aR,9R,10S,10aR,14aR)-2-(6-amino-9H-purin-9-yl)-3,5,10,12-tetrahydroxy-5,12-dioxidodecahydro-2H-cyclopenta[d]furo[3,2-j][1,3,7,9]tetraoxa[2,8]diphosphacyclo-dodecin-9-yl)-1,9-dihydro-6H-purin-6-one]		800 nM		11.3 °C	3.6 °C
Nc1nc2c(ncn2[C@H]2CC3OP(=O)(S)OC[C@H]4O[C@@H](n5cnc6c(N)ncnc65)C(F)C4OP(=O)(S)OC[C@H]3C2)c(=O)[nH]1 (single isomer, unassigned) [Compound 129a]	14 °C	100 nM	6.4 °C		
Nc1ncnc2c1ncn2[C@H]1CC2OP(=O)(O)OC[C@H]3C[C@@H](n4cnc5c(N)ncnc54)CC3OP(=O)(O)OC[C@H]2C1 (stereo partly drawn) [Compound 125, (2R,3aS,7aR,9R,10aS,14aR)-2,9-bis(6-amino-9H-purin-9-yl)-5,12-dihydroxydodecahydrodicyclopenta[d,j][1,3,7,9]-tetraoxa[2,8]diphosphacyclododecine 5,12-dioxide]	5.1 °C	13200 nM	0.7 °C		
Nc1nc2c(ncn2[C@@H]2C[C@@H]3COP(=O)(O)OC4C[C@H](n5cnc6c(N)ncnc65)O[C@@H]4COP(=O)(O)OC3C2O)c(=O)[nH]1 (stereo partly drawn) [Compound 106, 2-amino-9-((2R,3aS,7aR,9R,10S,10aR,14aR)-2-(6-amino-9H-purin-9-yl)-5,10,12-trihydroxy-5,12-dioxidodecahydro-2H-cyclopenta[d]furo[3,2-j][1,3,7,9]tetraoxa[2,8]diphosphacyclododecin-9-yl)-1,9-dihydro-6H-purin-6-one]	9 °C	400 nM	1.9 °C		
Nc1nc2c(ncn2[C@H]2CC3OP(=O)(O)OC[C@H]4C[C@@H](n5cnc6c(=O)[nH]c(N)nc65)C(O)C4OP(=O)(O)OC[C@H]3C2)c(=O)[nH]1 (stereo partly drawn) [Compound 123, 9,9′-((2R,3S,3aR,7aR,9R,10aS,14aR)-3,5,12-trihydroxy-5,12-dioxidododecahydrodicyclopenta[d,j][1,3,7,9]tetraoxa[2,8]-diphospha-cyclododecine-2,9-diyl)bis(2-amino-1,9-dihydro-6H-purin-6-one)]	4.6 °C	1200 nM	1.1 °C		
Nc1nc2c(ncn2[C@@H]2O[C@@H]3COP(=O)(O)O[C@@H]4[C@@H](COP(=O)(O)O[C@H]3[C@H]2F)C[C@@H](n2cnc3c(N)ncnc32)[C@@H]4F)c(=O)[nH]1 [Compound 131, (1R,6R,8R,9R,10R,15R,17R,18S)-8-(2-amino-6-oxo-6,9-dihydro-1H-purin-9-yl)-17-(6-amino-9H-purin-9-yl)-9,18-difluoro-3,12-dihydroxy-2,4,7,11,13-pentaoxa-3λ^5,12λ^5-diphosphatricyclo[13.3.0.0^6,10]octadecane-3,12-dione]	21.4 °C	10 nM	13.4 °C		
Nc1ncnc2c1ncn2[C@@H]1O[C@@H]2COP(=O)(O)OC3C(O)[C@H](n4cnc5c(=O)[nH]cnc54)C[C@@H]3COP(=O)(O)OC2C1F (stereo partly drawn) [Compound 107, 9-((2R,3R,3aR,7aR,9R,10S,10aR,14aR)-2-(6-amino-9H-purin-9-yl)-3-fluoro-5,10,12-trihydroxy-5,12-dioxidodecahydro-2H-cyclopenta[d]furo[3,2-j][1,3,7,9]tetraoxa[2,8]diphosphacyclododecin-9-yl)-1,9-dihydro-6H-purin-6-one]	16.7 °C	10 nM	7.6 °C		
Nc1nc2c(ncn2[C@H]2CC3OP(=O)(O)OC[C@H]4O[C@@H](n5cnc6c(N)ncnc65)C(O)C4OP(=O)(O)OC[C@H]3C2)c(=O)[nH]1 (stereo partly drawn) [Compound 115, (6R,8R,15R,17R)-17-(2-amino-6-oxo-6,9-dihydro-1H-purin-9-yl)-8-(6-amino-9H-purin-9-yl)-3,9,12-trihydroxy-2,4,7,11,13-pentaoxa-3λ^5,12λ^5-diphosphatricyclo[13.3.0.0^6,10]octadecane-3,12-dione]	10.5 °C	70 nM	3.8 °C		
Nc1nc2c(ncn2[C@@H]2C[C@@H]3COP(=O)(S)O[C@H]4[C@@H](F)[C@H](n5cnc6c(N)ncnc65)O[C@@H]4COP(=O)(S)O[C@H]3C2)c(=O)[nH]1 (single isomer, unassigned) [Compound 129c]	13.2 °C	400 nM			6.4 °C
Nc1ncnc2c1ncn2[C@@H]1C[C@@H]2COP(=O)(O)O[C@H]3[C@@H](F)[C@H](n4cnc5c(N)ncnc54)O[C@@H]3COP(=O)(O)O[C@H]2[C@H]1O [Compound 134, (1R,6R,8R,9R,10R,15R,17R,18S)-8,17-bis(6-amino-9H-purin-9-yl)-9-fluoro-3,12,18-trihydroxy-2,4,7,11,13-pentaoxa-3λ^5,12λ^5-diphosphatricyclo[13.3.0.0^6,10]octadecane-3,12-dione]	13.2 °C	20 nM	6.4 °C		
COC1C2OP(=O)(O)OC[C@H]3C[C@@H](n4cnc5c(N)ncnc54)C(O)C3OP(=O)(O)OC[C@H]2O[C@H]1n1cnc2c(=O)[nH]c(N)nc21 (stereo partly drawn) [Compound 114, 2-amino-9-((2R,3R,3aR,7aR,9R,10S,10aR,14aR)-9-(6-amino-9H-purin-9-yl)-5,10,12-trihydroxy-3-methoxy-5,12-dioxidodecahydro-2H-cyclopenta[d]furo[3,2-j][1,3,7,9]tetraoxa[2,8]diphosphacyclododecin-2-yl)-1,9-dihydro-6H-purin-6-one]	4.6 °C	21800 nM	0.4 °C		
